Test results taken from patent US20210386781A1, “A GROUP OF CHIMERIC ANTIGEN RECEPTORS (CARS)” (ST. ANNA KINDERKREBSFORSCHUNG, priority 2018, published 2021).

Legend:
A431-fLuc = test: Luciferase-based cytotoxicity assay, stably transduced CAR T cells against A431-fLuc, Example 4; type: cell-based, human; conditions: T cells without CAR expression; 10 nM
Protocol: Luciferase-expressing tumour cells were co-cultured with CAR T cells at an E:T cell ratio of 2:1 with 10,000 target cells/well in white round-bottom 96 well plates for 4 hours at 37° C. in cytotoxicity assay medium, consisting of phenol-free RPMI, 10% FCS, 1% L-Glutamine and 1% penicillin-streptomycin. Finally, remaining living cells were quantified by determination of the residual luciferase activity of the co-culture. After equilibration to room temperature for 10 minutes, luciferin was added to the cell suspension (150 μg/mL final concentration) and luciferase activity was measured 20 minutes later using the ENSPIRE Multimode plate reader. The percentage of specific lysis was determined with the following formula:
% specific lysis=100−((RLU from well with effector and target cell co-culture)/(RLU from well with target cells only)×100)).
Dimerization of transgenes was induced prior to co-cultivation experiments. Primary T cells were diluted to the final cell concentration in the respective cell culture medium. The homodimerization agent AP20187 was diluted in cell culture medium and was added at 10 nM final concentration. Addition of the respective vehicle control DMSO at the same concentration served as control. Cells were incubated at 37° C. for 30 minutes to ensure efficient dimerization of transgenes and subsequently used for in vitro experiments.

[1] = tested on: Jurkat T cells expressing tHER2; test: Luciferase-based cytotoxicity assay, affibody-based CAR T cells against tHER2-expressing Jurkat T cells, Example 8; type: cell-based, human; conditions: binder fused to 8ser-BB-FKBP(36V)-3z; with or without 10 nM AP20187; E:T 2:1, 4 hours
Protocol: Luciferase-expressing tumour cells were co-cultured with CAR T cells at an E:T cell ratio of 2:1 with 10,000 target cells/well in white round-bottom 96 well plates for 4 hours at 37° C. in cytotoxicity assay medium, consisting of phenol-free RPMI, 10% FCS, 1% L-Glutamine and 1% penicillin-streptomycin. Finally, remaining living cells were quantified by determination of the residual luciferase activity of the co-culture. After equilibration to room temperature for 10 minutes, luciferin was added to the cell suspension (150 μg/mL final concentration) and luciferase activity was measured 20 minutes later using the ENSPIRE Multimode plate reader. The percentage of specific lysis was calculated with the following formula:
Dimerization of transgenes was induced prior to co-cultivation experiments. Primary T cells were diluted to the final cell concentration in the respective cell culture medium. The homodimerization agent AP20187 was diluted in cell culture medium and was added at 10 nM final concentration. Addition of the vehicle control DMSO at the same concentration served as control. Cells were incubated at 37° C. for 30 minutes to ensure efficient dimerization of transgenes and subsequently used for in vitro experiments.

Compound	effect of the dimerization agent itself on lysis of target cells (A431-fLuc)	capacity to trigger cytotoxicity in presence or absence of AP20187 [1]
CC[C@H](C(=O)N1CCCC[C@H]1C(=O)O[C@H](CCc1ccc(OC)c(OC)c1)c1cccc(OCC(=O)NCC(CNC(=O)COc2cccc([C@@H](CCc3ccc(OC)c(OC)c3)OC(=O)[C@@H]3CCCCN3C(=O)[C@@H](CC)c3cc(OC)c(OC)c(OC)c3)c2)CN(C)C)c1)c1cc(OC)c(OC)c(OC)c1 [AP20187, reference compound]	no effects on the lysis of target cells	–
zHER2-WT: high-affinity anti-HER2 affibody with point mutations N23A and S33K	–	efficient target cell lysis independent of presence of AP20187
